Assay results published in patent EP1383793B1 (priority 2000, dated 2001).
Positions of bridges follow the written chain, without caps; N, C: chain ends. Residues, ends and D or L forms follow the SMILES beside them. *: point of attachment. Biotin = O=C1N[C@H]2[C@H](CS[C@H]2CCCCC(=O)*)N1

How the values were obtained:
IGF-1R [1] = molecular target: T1, IGF-1R (Homo sapiens, UniProt P08069); experiment: Phage ELISA, binding of phage-displayed peptides to IGF-1R; settings: 405 nm
T1 construct: Soluble IGF-1R was obtained from R&D Systems; purchased R&D Systems 391-GR/CF
T1 sequence (P08069 31-736 limits assumed): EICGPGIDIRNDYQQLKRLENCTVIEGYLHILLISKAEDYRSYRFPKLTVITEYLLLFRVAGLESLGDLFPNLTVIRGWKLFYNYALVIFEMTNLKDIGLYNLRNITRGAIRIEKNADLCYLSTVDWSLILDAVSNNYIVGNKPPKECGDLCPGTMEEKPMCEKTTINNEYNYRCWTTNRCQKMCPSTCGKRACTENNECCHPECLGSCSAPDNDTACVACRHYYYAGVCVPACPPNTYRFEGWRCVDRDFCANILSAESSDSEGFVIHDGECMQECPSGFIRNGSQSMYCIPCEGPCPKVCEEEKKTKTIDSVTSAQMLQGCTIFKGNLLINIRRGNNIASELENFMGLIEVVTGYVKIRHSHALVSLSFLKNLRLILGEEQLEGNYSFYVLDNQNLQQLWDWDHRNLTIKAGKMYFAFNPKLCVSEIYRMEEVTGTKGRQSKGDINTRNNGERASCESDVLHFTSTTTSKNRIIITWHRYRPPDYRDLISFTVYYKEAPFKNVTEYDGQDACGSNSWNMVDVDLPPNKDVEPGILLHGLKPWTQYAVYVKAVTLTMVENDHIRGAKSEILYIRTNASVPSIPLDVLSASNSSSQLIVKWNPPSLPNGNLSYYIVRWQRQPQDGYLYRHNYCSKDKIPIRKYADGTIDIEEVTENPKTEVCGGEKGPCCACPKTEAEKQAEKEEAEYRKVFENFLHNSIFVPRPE
T1 sequence (P08069 741-935 limits assumed): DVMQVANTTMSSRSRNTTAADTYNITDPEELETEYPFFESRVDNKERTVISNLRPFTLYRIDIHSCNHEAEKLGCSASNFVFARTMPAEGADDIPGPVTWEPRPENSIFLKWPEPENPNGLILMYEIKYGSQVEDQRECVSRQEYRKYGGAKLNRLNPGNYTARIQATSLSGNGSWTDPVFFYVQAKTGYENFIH
Procedure: Figures 1A-10G. Amino acid sequences comprising the motif of Formulas 1 through 10. […] One hundred microliters of this solution was added to an appropriate number of wells in a 96-well microtiter plate (MaxiSorp plates, Nunc) and incubated overnight at 4°C. […] Subsequent steps are the same for pooled and clonal phage. […] Phage resuspended in MPBS were added to duplicate wells (100 µl/well) and incubated at RT for 1 h. […] Incubation was for 1 h at RT, followed by PBS washes as described. […] Phage ELISA. […] The wells were blocked with 200 µl of MPBS for 1.5 h at RT. Phage were added at 100 µl per well. Peptides were added as noted below and allowed to incubate at RT for 3 h. The plates were washed 3 times with PBST. A solution of 1:3000 diluted HRP:Anti-M13 conjugate at 100 µl per well of was added for 1 h. Following a repeat of the washing, 100 µl of ABTS was added for 15-30 min. […] Phage ELISA. […] Phage were added at 100 µl per well. Peptides were added as noted below and allowed to incubate at RT for 3 h. The plates were washed 3X with PBST. A solution of 1:3000 diluted HRP:Anti-M13 Conjugate at 100 µl per well of was added for 1 h. Following a repeat of the washing, 100 µl of ABTS was added for 15-30 min. The OD405 was measured using a SpectraMax 340 Microplate Spectrophotometer.

IR [2] = molecular target: T2, IR (Homo sapiens, UniProt P06213); experiment: Phage ELISA, binding of phage-displayed peptides to IR
T2 construct: composed of the extracellular domains of both the α and β chains of the natural receptor; made in house; background b13 names human embryonic kidney 293 cells for the Bass et al. construct
T2 sequence (P06213 28-758 limits assumed): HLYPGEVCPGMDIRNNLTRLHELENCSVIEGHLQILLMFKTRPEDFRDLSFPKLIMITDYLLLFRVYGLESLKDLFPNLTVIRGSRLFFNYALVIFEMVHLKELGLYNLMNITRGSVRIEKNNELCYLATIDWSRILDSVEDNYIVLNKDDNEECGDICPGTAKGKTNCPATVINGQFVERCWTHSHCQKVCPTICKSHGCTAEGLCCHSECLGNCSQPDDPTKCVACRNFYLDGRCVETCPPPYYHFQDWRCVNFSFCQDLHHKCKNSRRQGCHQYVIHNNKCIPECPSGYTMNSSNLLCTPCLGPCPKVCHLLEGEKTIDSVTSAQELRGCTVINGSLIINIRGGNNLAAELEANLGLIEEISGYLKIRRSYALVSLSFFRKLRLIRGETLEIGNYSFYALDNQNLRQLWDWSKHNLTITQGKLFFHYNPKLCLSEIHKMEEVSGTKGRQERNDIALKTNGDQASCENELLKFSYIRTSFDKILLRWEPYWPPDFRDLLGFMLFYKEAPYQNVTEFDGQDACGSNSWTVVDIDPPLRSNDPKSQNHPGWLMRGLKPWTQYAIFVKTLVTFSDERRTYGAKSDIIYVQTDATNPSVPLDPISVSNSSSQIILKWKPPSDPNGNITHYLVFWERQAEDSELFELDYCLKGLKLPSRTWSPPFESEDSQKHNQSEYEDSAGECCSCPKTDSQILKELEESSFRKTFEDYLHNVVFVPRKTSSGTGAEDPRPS
T2 sequence (P06213 763-956 limits assumed): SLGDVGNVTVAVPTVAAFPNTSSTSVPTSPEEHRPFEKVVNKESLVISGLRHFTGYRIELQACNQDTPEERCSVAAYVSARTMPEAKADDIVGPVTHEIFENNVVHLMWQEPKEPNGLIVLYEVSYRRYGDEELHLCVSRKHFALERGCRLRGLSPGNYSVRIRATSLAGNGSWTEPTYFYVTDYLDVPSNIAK
Procedure: Amino acid sequences comprising the motif of Formulas 1 through 10. […] Fifty microliters of this solution was added to an appropriate number of wells in a 96-well microtiter plate (MaxiSorp plates, Nunc) and incubated overnight at 4°C. […] To isolate specific binders, each library was panned against a soluble form of the human IR. This IR is composed of the extracellular domains of both the α and β chains of the natural receptor, as well as the constant domain from immunoglobulin Fc, retaining the β-α-α-β structure described above. Because the IR is expressed in a eukaryotic system, disulfide bond formation and glycosylation patterns should mimic the wild-type receptor. The details of this recombinant protein construct are described in Bass et al. (1996). Phage ELISA. […] The wells were blocked with 200 µl of MPBS for 1.5 h at RT. […] Peptides were added as noted below and allowed to incubate at RT for 3 h. The plates were washed 3 times with PBST. A solution of 1:3000 diluted HRP:Anti-M13 conjugate at 100 µl per well of was added for 1 h. Following a repeat of the washing, 100 µl of ABTS was added for 15-30 min. […] Phage ELISA. […] Peptides were added as noted below and allowed to incubate at RT for 3 h. […] A solution of 1:3000 diluted HRP:Anti-M13 Conjugate at 100 µl per well of was added for 1 h. Following a repeat of the washing, 100 µl of ABTS was added for 15-30 min. The OD405 was measured using a SpectraMax 340 Microplate Spectrophotometer.

adipocytes = experiment: 3H-glucose uptake into adipocytes (fat cell assay, FFC); format: cell-based, Mouse; set-up: key to Resp.: -2 (antagonist); +2 (agonist); settings: for Resp.: Subjective ranking, basal and sub maximal insulin, includes series A; for ED50: Estimated, not calculated values; for ED50 in the effect assay (FFC): best peptides, agonists
[3] = molecular target: T3, purified insulin receptor (Homo sapiens, UniProt P06213); experiment: Holoenzyme phosphorylation assay (IR autophosphorylation, Western blot); format: biochemical
T3 construct: host or cells: 'Wheat Germ Agglutinin Expression System' (so in the source)
T3 sequence (P06213 28-758 limits assumed): as the sequence (P06213 28-758 limits assumed) above
T3 sequence (P06213 763-1382 limits assumed): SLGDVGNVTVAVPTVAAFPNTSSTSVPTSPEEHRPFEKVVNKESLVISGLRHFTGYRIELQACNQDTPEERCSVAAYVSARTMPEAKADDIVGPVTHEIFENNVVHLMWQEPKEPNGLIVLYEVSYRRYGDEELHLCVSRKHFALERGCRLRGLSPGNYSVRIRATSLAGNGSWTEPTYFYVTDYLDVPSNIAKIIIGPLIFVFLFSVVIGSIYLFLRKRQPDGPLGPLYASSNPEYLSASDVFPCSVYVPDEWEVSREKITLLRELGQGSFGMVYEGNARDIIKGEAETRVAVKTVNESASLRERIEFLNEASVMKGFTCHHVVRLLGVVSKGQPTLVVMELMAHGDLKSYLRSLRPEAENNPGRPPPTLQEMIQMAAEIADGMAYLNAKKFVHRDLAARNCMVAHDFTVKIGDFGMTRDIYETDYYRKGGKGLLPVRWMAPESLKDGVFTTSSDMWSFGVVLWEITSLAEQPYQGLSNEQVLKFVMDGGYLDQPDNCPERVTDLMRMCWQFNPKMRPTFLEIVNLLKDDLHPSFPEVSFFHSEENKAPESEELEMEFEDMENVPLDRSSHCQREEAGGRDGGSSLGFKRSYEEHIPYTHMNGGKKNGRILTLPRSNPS
Procedure: Alternatively, IR autophosphorylation was determined using a holoenzyme phosphorylation assay. […] The reaction was stopped by adding 50 µl of gel loading buffer containing β-mercaptoethanol (Bio-Rad Laboratories, Inc., Hercules, CA). The samples were run on 4-12% SDS-polyacrylamide gels. Western Blot analysis was performed by transferring the proteins onto nitrocellulose membrane. The membrane was blocked in PBS containing 3% milk overnight. The membrane was incubated with anti-phosphotyrosine 4G10 HRP labeled antibody (Upstate Biotechnology) for 2 h. Protein bands were visualized using SuperSignal West Dura Extended Duration Substrate Chemiluminescence Detection System (Pierce Chemical Co.).

Insulin receptor [4] = molecular target: T4, Insulin receptor (Homo sapiens, UniProt P06213); experiment: BIAcore competition: IR pre-incubated with test substance, injected over immobilised insulin; format: binding; settings: peptide about 40 µM, IR 450 nM; IR alone 128 RU
T4 construct: composed of the extracellular domains of both the α and β chains of the natural receptor; made in house; background b13 names human embryonic kidney 293 cells for the Bass et al. construct
T4 sequence (P06213 28-758 limits assumed): as the sequence (P06213 28-758 limits assumed) above
T4 sequence (P06213 763-956 limits assumed): as the sequence (P06213 763-956 limits assumed) above
Procedure: Flowcell-1 was used for background binding to correct for any non-specific binding. […] The surface was regenerated with 25 mM NaOH. […] Thus, the system was validated for competition studies. […] The amino acid sequences referred to in the tables are identified in Figures 47 and 48, except the 447 and 2A9 sequences, which are shown below. TABLE 9: BIAcore Results-Fusion Proteins Compete for Binding to IR

IR [5] = molecular target: T2, IR; experiment: Phage ELISA, competition of phage binding by soluble synthetic peptides, IR-coated wells; settings: Insulin Receptor
Procedure: (§1) Peptide Competition. […] Twenty microliters of the stock synthetic-peptide solution was added to Row A. A series of 20 µl into 100 µl dilutions were performed until Row G. Twenty microliters were discarded from Row G to maintain 100 µl per well. Row H was reserved as no peptide wells. […] The volume was maintained by the addition of 18 µl of the phage solution to Row A.
(§2) Phage ELISA. […] The wells were blocked with 200 µl of 2% (w/v) Carnation non-fat dry milk in PBS for 1.5 h at RT. Phage were added at 100 µl per well. Peptides were added as noted below and allowed to incubate at RT for 3 h. The plates were washed 3X with PBST. A solution of 1:3000 diluted HRP:Anti-M13 Conjugate at 100 µl per well of was added for 1 h. Following a repeat of the washing, 100 µl of ABTS was added for 15-30 min. The OD405 was measured using a SpectraMax 340 Microplate Spectrophotometer.
(§3) Peptide Competition. Peptide Competition Curves were produced during the phage ELISA across rows in triplicate. The stock synthetic peptide solution was added to Column 12 so that the total volume totaled 150 µl (additional phage solution was added when necessary). A serial dilution was made by transferring 50 µl from Column 12 into 100 µl in Column 11, 50 µl from Column 11 into 100 µl in Column 10, and continuing the serial dilution until Column 2. Fifty microliters were discarded from Column 2 to maintain 100 µl per well. Column 1 was reserved as no peptide wells.
(§4) A p53-like peptide that binds to MDM2 was used as a negative control.

IGF-1R [6] = molecular target: T1, IGF-1R; experiment: Phage ELISA, competition of phage binding by soluble synthetic peptides, IGF-1R-coated wells; settings: IGF Receptor
Procedure: as §1, §2, §3, §4

[7] = Precipitate in diluted peptide stock prior to adding to the fat cell assay; solubility under assay conditions; format: physicochemical; settings: for Comments (precipitation): diluted stock prior to adding to assay
[8] = molecular target: human IGF-1 receptor (HIGF-1R) (Homo sapiens, UniProt P08069); experiment: 125I-IGF-1 competition binding assay on solubilised purified receptor; settings: Kd HIGF1R / Kd HIR
Chain of human IGF-1 receptor (HIGF-1R) (P08069 31-736 limits assumed): as the sequence (P08069 31-736 limits assumed) above
Chain of human IGF-1 receptor (HIGF-1R) (P08069 741-1367 limits assumed): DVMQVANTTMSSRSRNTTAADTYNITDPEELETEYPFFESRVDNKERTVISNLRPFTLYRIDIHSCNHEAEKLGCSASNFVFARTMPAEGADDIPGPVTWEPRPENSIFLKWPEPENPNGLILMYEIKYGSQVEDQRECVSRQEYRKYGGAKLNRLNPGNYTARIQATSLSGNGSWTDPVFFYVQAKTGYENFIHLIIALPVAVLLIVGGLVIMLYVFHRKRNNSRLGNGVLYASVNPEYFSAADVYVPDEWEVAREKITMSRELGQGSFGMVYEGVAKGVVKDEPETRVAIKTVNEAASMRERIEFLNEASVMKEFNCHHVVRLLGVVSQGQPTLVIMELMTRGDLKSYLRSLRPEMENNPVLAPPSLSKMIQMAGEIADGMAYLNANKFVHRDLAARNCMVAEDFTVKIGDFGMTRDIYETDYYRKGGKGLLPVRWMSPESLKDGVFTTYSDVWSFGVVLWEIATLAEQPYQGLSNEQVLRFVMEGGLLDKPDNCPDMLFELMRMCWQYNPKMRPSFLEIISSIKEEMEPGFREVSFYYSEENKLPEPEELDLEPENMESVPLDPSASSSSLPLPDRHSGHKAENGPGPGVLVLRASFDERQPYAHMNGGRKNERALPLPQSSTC

Insulin receptor [9] = molecular target: T4, Insulin receptor; experiment: Heterogeneous time-resolved fluorescence assay (TRFA) on insulin receptor; format: binding; settings: peptide at 30 µM
Procedure: In this assay, saEu forms a ternary complex with bP and IR (i.e., IR:bP:saEu complex). The TRFD assay format is well established, sensitive, and quantitative (Tompkins et al., 1993). The assay can use a single-chain antibody or a biotinylated peptide.
In these assays, soluble IR is coated on the surface of microtiter wells, blocked by a solution of 0.5% BSA and 2% non-fat milk in PBS, and then incubated with biotinylated peptide or rVab. Unbound bP is then washed away and saEu is added to complex with receptor-bound bP. Upon addition of the acidic enhancement solution, the bound europium is released as free Eu^3+ which rapidly forms a highly fluorescent and stable complex with components of the enhancement solution. The IR:bP bound saEu is then converted into its highly fluorescent state and detected by a detector such as Wallac Victor II (EG&G Wallac, Inc.)
• a. Heterogeneous Time-Resolved Fluorescence Assay. […] The plates were blocked with TBS containing 2% milk and 0.5% BSA for 1 h at RT followed by three TBS washes. […] After TBS wash, europium-labeled streptavidin at 1 µg/ml in assay buffer (100 mM Tris-HCl, pH 7.8; 150 mM NaCl; 0.5% BSA; 0.05% bovine Ig; 0.05% NaN3; 0.01% Tween-20) was added to the plates and incubated for 1 h. To test binding of rVab antibodies to IR, Eu-labeled rVab antibodies in assay buffer were added to the plates and incubated for 2 h to overnight. After incubation with Eu-labeled streptavidin (for peptide test) or europium-labeled rVabs, the plates were washed 5 times with Tris-buffered saline (pH 7.5) containing 0.1 % Tween-20 (TTBS) and tapped dry. Sixty microliters of EG&G Wallac enhancement solution (100 mM acetone-potassium hydrogen pthalate, pH 3.2; […] 2-naphtyltrifluoroacetate; […] tri(n-octyl)-phosphine oxide; 0.1 % Triton X-100) was added into each well, and the plates were placed onto a shaker for 20 min at RT. […] Homogeneous Time-Resolved Fluorescence Assay. […] For library screening, 20 µM of small organic molecules in 2 % DMSO are included in the mixture.

Compound | Absorbance Values sIGF-1R (IGF-1R [1]) | Absorbance Values IR (IR [2]; 405 nm) | Resp. (adipocytes) | Autophosph. Blot [3] | Result (RUs) (Insulin receptor [4]) | binding to IR when expressed as phage (IR [2]) | Comments (dose response, effect at basal insulin) (adipocytes) | ED50 (adipocytes) | ED50 in the effect assay (FFC) (adipocytes) [µM] | n (Hill plot) (IR [5]; 20D3 Phage) | n (Hill plot) (IR [5]; H2 Phage) | n (Hill plot) (IGF-1R [6]; H2 Phage) | Comments (precipitation) [7] | Ratio [8] | n (Hill plot) (IGF-1R [6]; 20D3 Phage) | binding of rVab 12H10 to IR (Insulin receptor [9]) | Comments (soluble under assay conditions) ([7]; under assay conditions, no ppt in microscope, low magnification) [µM]
CC[C@H](C)[C@H](NC(=O)[C@H](CCC(=O)O)NC(=O)[C@@H](N)CCCCN)C(=O)N[C@@H](CCC(=O)O)C(=O)N[C@@H](C)C(=O)N[C@@H](CCC(=O)O)C(=O)N[C@@H](Cc1c[nH]c2ccccc12)C(=O)NCC(=O)N[C@@H](CCCNC(=N)N)C(=O)N[C@H](C(=O)N[C@@H](CCCNC(=N)N)C(=O)N[C@H]1CSSC[C@@H](C(=O)N[C@H](C(=O)NCC(=O)NCC(=O)N[C@@H](CCCCN)C(=O)N[C@@H](CCCCNC(=O)CCCC[C@@H]2SC[C@@H]3NC(=O)N[C@@H]32)C(N)=O)C(C)C)NC(=O)[C@H](CCCNC(=N)N)NC(=O)CNC(=O)[C@H](Cc2ccc(O)cc2)NC(=O)[C@H](C(C)C)NC(=O)[C@H](CC(C)C)NC1=O)C(C)C [Clone 20A4] (H-KEIEAEWGRVRCLVYGRCVGGKK(Biotin)-NH2; disulfide 12-18 (inferred); N-terminus assumed) | 0.21 | 1.61 | -1 | 0 | 41.8 |  |  |  |  |  |  |  |  |  |  |  | 
CC(C)[C@H](NC(=O)[C@H](C)NC(=O)[C@H](CO)NC(=O)[C@@H](NC(=O)[C@H](Cc1ccccc1)NC(=O)[C@@H](NC(=O)[C@@H](NC(=O)[C@H](CC(=O)O)NC(=O)[C@H](CCCCN)NC(=O)[C@H](Cc1ccc(O)cc1)NC(=O)[C@@H](N)CC(=O)O)C(C)C)[C@@H](C)O)[C@@H](C)O)C(=O)N[C@@H](Cc1ccccc1)C(=O)N[C@@H](Cc1c[nH]cn1)C(=O)N[C@@H](CCC(=O)O)C(=O)N[C@@H](CC(N)=O)C(=O)N[C@@H](Cc1ccccc1)C(=O)N[C@@H](Cc1ccc(O)cc1)C(=O)N[C@@H](CC(=O)O)C(=O)N[C@@H](Cc1c[nH]c2ccccc12)C(=O)N[C@@H](Cc1ccccc1)C(=O)N[C@H](C(=O)N[C@@H](CCCNC(=N)N)C(=O)N[C@@H](CCC(N)=O)C(=O)N[C@H](C(=O)N[C@@H](CO)C(=O)N[C@@H](CCCCN)C(=O)N[C@@H](CCCCNC(=O)CCCC[C@@H]1SC[C@@H]2NC(=O)N[C@@H]21)C(N)=O)C(C)C)C(C)C [Clone H2] |  |  | +2 |  | 34.6 | detectable binding | Some response at basal insulin | Approx 20 µM | 20 to 30 | 1.07 | 0.71 | 1.21 | Insoluble, especially after freeze-thaw | 7.2 |  |  | 
CC[C@H](C)[C@@H]1NC(=O)[C@H](CCCNC(=N)N)NC(=O)[C@H](C(C)C)NC(=O)CNC(=O)[C@H](Cc2c[nH]c3ccccc23)NC(=O)[C@H](CO)NC(=O)[C@H](CCC(N)=O)NC(=O)[C@@H](NC(=O)[C@H](CC(C)C)NC(=O)[C@H](CC(=O)O)NC(=O)[C@H](CCCCN)NC(=O)[C@H](Cc2ccc(O)cc2)NC(=O)[C@@H](N)CC(=O)O)CSSC[C@@H](C(=O)N2CCC[C@H]2C(=O)N[C@@H](CCCCN)C(=O)N[C@@H](CCCCNC(=O)CCCC[C@@H]2SC[C@@H]3NC(=O)N[C@@H]32)C(N)=O)NC(=O)[C@H](CC(C)C)NC(=O)CNC(=O)[C@H](C)NC(=O)[C@H](CC(C)C)NC(=O)[C@H](Cc2c[nH]c3ccccc23)NC(=O)CNC1=O [JBA5] (H-DYKDLCQSWGVRIGWLAGLCPKK(Biotin)-NH2; disulfide 6-20 (inferred); N-terminus assumed) |  |  | +2 | 0 |  | do not have detectable binding | Slight effect at basal insulin | > 20 µM |  |  |  |  |  | 1.8 |  |  | 
FHENFYDWFVRQVSKK [Clone H2C] |  |  | +2 |  |  |  | Some response at basal insulin | Approx 20 µM | 20 to 30 | 1.03 | 0.62 | 1.02 | Precipitates | 8.6 | 0.81 | 40-50 % of control | ≥ 20
